How the values were obtained:
[1] = target: Neuronal acetylcholine receptor subunit alpha-3 (Bos taurus) (UniProt Q07263); experiment: Displacement of [3H]epibatidine from bovine […] nAChR expressed in HEK293 cells at 10 uM; format: cell-based
[2] = Inhibition of nicotin-stimulated neurosecretion in bovine adrenal gland; format: functional, tissue-based, Bos taurus, Adrenal tissue
[3] = target: Neuronal acetylcholine receptor subunit alpha-7 (Bos taurus) (UniProt P54131); experiment: Displacement of [125I]alpha-bungarotoxin from bovine alpha7 nAChR expressed in HEK293 cells at 10 uM; format: cell-based
[4] = target: Neuronal acetylcholine receptor subunit alpha-7 (Bos taurus, UniProt P54131); experiment: Displacement of [125I]alpha-bungarotoxin from bovine alpha7 nAChR expressed in HEK293 cells; format: cell-based
[5] = target: Neuronal acetylcholine receptor subunit alpha-3 (Bos taurus) (UniProt Q07263); experiment: Displacement of [3H]epibatidine from bovine […] nAChR expressed in HEK293 cells at 1.0 uM; format: cell-based
[6] = target: Neuronal acetylcholine receptor subunit alpha-7 (Bos taurus) (UniProt P54131); experiment: Displacement of [125I]alpha-bungarotoxin from bovine alpha7 nAChR expressed in HEK293 cells at 1.0 uM; format: cell-based

Chain of Neuronal acetylcholine receptor subunit alpha-3 (Bos taurus) (Q07263 whole entry): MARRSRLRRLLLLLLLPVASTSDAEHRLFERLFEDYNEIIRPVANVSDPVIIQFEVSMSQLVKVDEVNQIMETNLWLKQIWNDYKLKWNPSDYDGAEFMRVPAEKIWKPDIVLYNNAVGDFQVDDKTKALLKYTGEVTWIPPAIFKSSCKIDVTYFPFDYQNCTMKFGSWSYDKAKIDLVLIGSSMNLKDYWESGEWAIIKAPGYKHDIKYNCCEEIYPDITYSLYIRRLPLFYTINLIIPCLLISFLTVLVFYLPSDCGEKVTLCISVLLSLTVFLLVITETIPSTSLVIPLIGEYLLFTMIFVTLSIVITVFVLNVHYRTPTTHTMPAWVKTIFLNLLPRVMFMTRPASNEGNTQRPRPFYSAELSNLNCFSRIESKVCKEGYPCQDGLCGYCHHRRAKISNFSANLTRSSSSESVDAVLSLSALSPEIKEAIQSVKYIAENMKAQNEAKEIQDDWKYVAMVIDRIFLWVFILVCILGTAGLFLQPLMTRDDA
Chain of Neuronal acetylcholine receptor subunit alpha-7 (Bos taurus) (P54131 whole entry): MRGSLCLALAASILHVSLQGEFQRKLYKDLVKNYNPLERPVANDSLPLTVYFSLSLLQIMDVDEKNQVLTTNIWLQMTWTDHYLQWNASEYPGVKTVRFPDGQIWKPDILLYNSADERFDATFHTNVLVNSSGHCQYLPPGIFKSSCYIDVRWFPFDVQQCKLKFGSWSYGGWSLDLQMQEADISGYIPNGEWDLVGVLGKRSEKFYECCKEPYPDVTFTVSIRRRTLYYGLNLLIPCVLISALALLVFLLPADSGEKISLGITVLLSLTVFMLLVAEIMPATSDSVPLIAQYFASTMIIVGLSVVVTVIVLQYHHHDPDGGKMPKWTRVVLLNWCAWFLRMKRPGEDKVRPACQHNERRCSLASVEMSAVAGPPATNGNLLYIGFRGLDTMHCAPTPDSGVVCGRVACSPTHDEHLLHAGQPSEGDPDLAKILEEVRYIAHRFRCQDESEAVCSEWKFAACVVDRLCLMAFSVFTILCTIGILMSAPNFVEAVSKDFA
Chain of Neuronal acetylcholine receptor subunit alpha-7 (P54131 whole entry): as above

Row | SMILES | Activity [1] | Activity [3] | also measured
1 | CC1CC(=O)N(c2ccccc2C(=O)OC[C@@H]2C[C@H](CCCCCO[Si](C)(C)C(C)(C)C)CN(CCCc3ccccc3)C2)C1=O (stereo not given in full) | 118% | 88.8% | IC50 [2]: 2 µM
2 | CC1CC(=O)N(c2ccccc2C(=O)OC[C@@H]2CCCN(CCCc3ccccc3)C2)C1=O (stereo not given in full) |  |  | IC50 [4]: 177 µM
3 | CC1CC(=O)N(c2ccccc2C(=O)OC[C@@H]2C[C@H](c3ccccc3)CN(CCCc3ccccc3)C2)C1=O (stereo not given in full) | 86.8% | 94.3% | 
4 | CC1CC(=O)N(c2ccccc2C(=O)OC[C@@H]2C[C@H](CCc3ccccc3)CN(CCCc3ccccc3)C2)C1=O (stereo not given in full) | 103% | 98.8% | 
5 | CC1CC(=O)N(c2ccccc2C(=O)OC[C@@H]2C[C@H](CC3CCCCC3)CN(CCCc3ccccc3)C2)C1=O (stereo not given in full) |  | 92.6% | 
6 | CC1CC(=O)N(c2ccccc2C(=O)OC[C@@H]2C[C@H](C3CCCCC3)CN(CCCc3ccccc3)C2)C1=O (stereo not given in full) |  | 103% | 
7 | CCCCCC[C@H]1C[C@@H](COC(=O)c2ccccc2N2C(=O)CC(C)C2=O)CN(CCCc2ccccc2)C1 (stereo not given in full) | 105% | 92.2% | IC50 [2]: 2 µM
8 | CCN1C[C@]2(COC(=O)c3ccccc3N3C(=O)C[C@H](C)C3=O)CC[C@H](OC)[C@@]34[C@@H]5C[C@H]6[C@H](OC)[C@@H]5[C@](O)(C[C@@H]6OC)[C@](O)([C@@H](OC)[C@H]23)[C@@H]14 |  |  | Activity [5]: 50.1%; Activity [6]: 7.5%

From ChEMBL document CHEMBL1157154, “The synthesis of 5-substituted ring E analogs of methyllycaconitine via the Suzuki-Miyaura cross-coupling reaction” (Bioorg Med Chem, 2008)
